Active and inactive are the calls of the source. The calls are words filed in the database; no cut-off is given here.
Tested on: Cortical neurone
Assay: Neuroplasticity effect in Wistar rat cortical neurons assessed as increase in neurite number at <= 10 uM incubated for 72 […]
Type: functional, cell-based

Row | SMILES | Activity
1 | c1ccc(COc2ccc3c(c2)NC2CCNCCC32)cc1 (stereo not drawn) | Active
2 | CN1CCC2c3ccc(Oc4ccccc4)cc3N(C)C2CC1 (stereo not drawn) | inactive
3 | Fc1ccc(Oc2ccc3c(c2)NC2CCNCCC32)cc1 (stereo not drawn) | Active
4 | CN1CCC2Nc3cc(OCc4ccc(F)cc4)ccc3C2CC1 (stereo not drawn) | Active
5 | CN1CCC2Nc3cc(OCc4ccccc4)ccc3C2CC1 (stereo not drawn) | Active
6 | CN1CCC2Nc3cc(Oc4ccccc4)ccc3C2CC1 (stereo not drawn) | Active

Tested on: Cortical neurone
Assay: Neuroplasticity effect in Wistar rat cortical neurons assessed as increase in neurite length at <= 10 uM incubated for 72 […]
Type: functional, cell-based

Row | SMILES | Activity
7 | c1ccc(COc2ccc3c(c2)NC2CCNCCC32)cc1 (stereo not drawn) | Active
8 | CN1CCC2c3ccc(Oc4ccccc4)cc3N(C)C2CC1 (stereo not drawn) | Active
9 | Fc1ccc(Oc2ccc3c(c2)NC2CCNCCC32)cc1 (stereo not drawn) | Active
10 | CN1CCC2Nc3cc(OCc4ccc(F)cc4)ccc3C2CC1 (stereo not drawn) | Active
11 | CN1CCC2Nc3cc(OCc4ccccc4)ccc3C2CC1 (stereo not drawn) | Active
12 | CN1CCC2Nc3cc(Oc4ccccc4)ccc3C2CC1 (stereo not drawn) | Active

Tested on: Cortical neurone
Assay: Neuroplasticity effect in Wistar rat cortical neurons assessed as increase in neurite branching at <= 10 uM incubated for 72 […]
Type: functional, cell-based

Row | SMILES | Activity
13 | c1ccc(COc2ccc3c(c2)NC2CCNCCC32)cc1 (stereo not drawn) | Active
14 | CN1CCC2c3ccc(Oc4ccccc4)cc3N(C)C2CC1 (stereo not drawn) | inactive
15 | Fc1ccc(Oc2ccc3c(c2)NC2CCNCCC32)cc1 (stereo not drawn) | Active
16 | CN1CCC2Nc3cc(OCc4ccc(F)cc4)ccc3C2CC1 (stereo not drawn) | Active
17 | CN1CCC2Nc3cc(OCc4ccccc4)ccc3C2CC1 (stereo not drawn) | inactive
18 | CN1CCC2Nc3cc(Oc4ccccc4)ccc3C2CC1 (stereo not drawn) | Active

Reference: ChEMBL document CHEMBL5584284, “Advancing Neurological Therapies: Integrating Novel Compounds and Clinical Trials for Enhanced Cognitive and Neuronal Health” (ACS Med Chem Lett, 2024)
